# Results as given in ChEMBL document CHEMBL1201862, “PubChem BioAssay data set” (2004).
#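 96-well plates; 48 h exposure; 5 concentrations. Endpoints by linear interpolation between flanking doses. Not reached: highest tested concentration assigned. The concentration for 50% growth inhibition is given as GI50.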 Active and inactive are the calls of the source. No stated cut-off is given here; in the data, active = GI50 up to about 1.1 µM and inactive = higher.
# How the values were obtained:
# Experiment in all cases: NCI-60 cell line screen, 48 h
# SN12C = test system: SN12C
# SF-295 = test system: SF-295
# NCI-H522 = test system: NCI-H522
# NCI-H226 = test system: NCI-H226
# DU-145 = test system: DU-145
# RPMI-8226 = test system: RPMI-8226
# SF-268 = test system: SF-268
# 786-0 = test system: 786-0
# MDA-MB-231 = test system: MDA-MB-231
# OVCAR-5 = test system: OVCAR-5
# U-251 = test system: U-251
# CCRF-CEM = test system: CCRF-CEM
# CAKI-1 = test system: CAKI-1
# RXF 393 = test system: RXF 393
# M14 = test system: M14
# SK-MEL-28 = test system: SK-MEL-28
# LOX IMVI = test system: LOX IMVI
# MDA-MB-435 = test system: MDA-MB-435
# TK-10 = test system: TK-10
# MCF7 = test system: MCF7
SMILES,GI50 (SN12C),GI50 (SF-295),GI50 (NCI-H522),GI50 (NCI-H226),GI50 (DU-145),GI50 (RPMI-8226),GI50 (SF-268),GI50 (786-0),GI50 (MDA-MB-231),GI50 (OVCAR-5),GI50 (U-251),GI50 (CCRF-CEM),GI50 (CAKI-1),GI50 (RXF 393),GI50 (M14),GI50 (SK-MEL-28),GI50 (LOX IMVI),GI50 (MDA-MB-435),GI50 (TK-10),GI50 (MCF7)
O=c1c2cc([N+](=O)[O-])ccc2n2n1Cc1ccccc1CC2,> 100 µM (inactive),> 100 µM (inactive),> 100 µM (inactive),> 100 µM (inactive),> 100 µM (inactive),> 100 µM (inactive),> 100 µM (inactive),> 100 µM (inactive),> 100 µM (inactive),> 100 µM (inactive),> 100 µM (inactive),> 100 µM (inactive),> 100 µM (inactive),> 100 µM (inactive),> 100 µM (inactive),> 100 µM (inactive),> 100 µM (inactive),> 100 µM (inactive),38.1 µM (inactive),> 100 µM (inactive)
O=C(O)/C=C/c1c2ccc(=O)c(O)c-2oc2c(O)c(O)ccc12,15.3 µM (inactive),24.4 µM (inactive),> 100 µM (inactive),70.8 µM (inactive),> 100 µM (inactive),23.2 µM (inactive),> 100 µM (inactive),18.9 µM (inactive),20.8 µM (inactive),78.2 µM (inactive),16.1 µM (inactive),9.59 µM (inactive),> 100 µM (inactive),> 100 µM (inactive),47.4 µM (inactive),> 100 µM (inactive),23 µM (inactive),17.4 µM (inactive),> 100 µM (inactive),17.2 µM (inactive)
Cc1cc2c(O)nc(N)nc2nc1C,> 100 µM (inactive),> 100 µM (inactive),> 100 µM (inactive),> 100 µM (inactive),> 100 µM (inactive),> 100 µM (inactive),> 100 µM (inactive),> 100 µM (inactive),> 100 µM (inactive),> 100 µM (inactive),> 100 µM (inactive),> 100 µM (inactive),> 100 µM (inactive),> 100 µM (inactive),> 100 µM (inactive),> 100 µM (inactive),> 100 µM (inactive),> 100 µM (inactive),> 100 µM (inactive),> 100 µM (inactive)
Cc1nnc2sc(-c3ccc(-c4ccccc4Cl)o3)nn12,35.4 µM (inactive),32.1 µM (inactive),25.4 µM (inactive),20.8 µM (inactive),36.6 µM (inactive),20.4 µM (inactive),33.9 µM (inactive),26.9 µM (inactive),53.2 µM (inactive),> 100 µM (inactive),32.5 µM (inactive),43.6 µM (inactive),56 µM (inactive),33.8 µM (inactive),32 µM (inactive),,20.9 µM (inactive),18.9 µM (inactive),45.1 µM (inactive),29.1 µM (inactive)
CSc1cnn(CCC#N)c(=O)n1,> 100 µM (inactive),> 100 µM (inactive),> 100 µM (inactive),> 100 µM (inactive),> 100 µM (inactive),> 100 µM (inactive),> 100 µM (inactive),> 100 µM (inactive),> 100 µM (inactive),> 100 µM (inactive),> 100 µM (inactive),31 µM (inactive),> 100 µM (inactive),> 100 µM (inactive),> 100 µM (inactive),> 100 µM (inactive),93.5 µM (inactive),> 100 µM (inactive),> 100 µM (inactive),39.4 µM (inactive)
CC(=O)/C(=C\Nc1c(C)n(C)n(C)c1=O)C(=O)c1ccccc1,> 50 µM (inactive),> 50 µM (inactive),> 50 µM (inactive),> 50 µM (inactive),> 50 µM (inactive),> 50 µM (inactive),> 50 µM (inactive),> 50 µM (inactive),> 50 µM (inactive),> 50 µM (inactive),> 50 µM (inactive),> 50 µM (inactive),> 50 µM (inactive),> 50 µM (inactive),> 50 µM (inactive),> 50 µM (inactive),> 50 µM (inactive),> 50 µM (inactive),> 50 µM (inactive),> 50 µM (inactive)
CCc1c(-c2ccc(OC)cc2)c(=O)oc2cc(O)ccc12,35.9 µM (inactive),35.6 µM (inactive),29.5 µM (inactive),56.6 µM (inactive),33.2 µM (inactive),18.6 µM (inactive),41.5 µM (inactive),51.2 µM (inactive),57.5 µM (inactive),> 100 µM (inactive),38.4 µM (inactive),27.4 µM (inactive),39.3 µM (inactive),54.5 µM (inactive),23.9 µM (inactive),36.7 µM (inactive),30.1 µM (inactive),27.6 µM (inactive),,32.7 µM (inactive)
C/C=C(/C)C(=O)O[C@H]1[C@H](O)CC(c2ccc3c(c2O)C(=O)C2=C(O)C4(OC)C(=O)C(C(N)=O)=C(O)[C@H](CC(=O)c5ccccc5O)C4CC2[C@@]3(C)OC)O[C@@H]1C (some centres undefined),0.00297 µM (active),0.017 µM (active),0.00557 µM (active),0.0202 µM (active),0.0265 µM (active),0.00785 µM (active),0.0057 µM (active),0.00479 µM (active),0.0078 µM (active),0.0546 µM (active),0.00256 µM (active),0.0281 µM (active),0.0124 µM (active),0.0198 µM (active),0.0213 µM (active),0.653 µM (active),0.0035 µM (active),0.0187 µM (active),0.00817 µM (active),0.00363 µM (active)
CC(=O)OC(Cc1cc(C=C(C(F)(F)F)C(F)(F)F)cc(C)n1)(C(F)(F)F)C(F)(F)F,1.44 µM (inactive),2.82 µM (inactive),2.01 µM (inactive),1.78 µM (inactive),2.48 µM (inactive),0.656 µM (active),1.74 µM (inactive),0.839 µM (active),1.5 µM (inactive),2.18 µM (inactive),1.55 µM (inactive),0.217 µM (active),1.77 µM (inactive),0.855 µM (active),1.57 µM (inactive),1.38 µM (inactive),1.14 µM (inactive),1.48 µM (inactive),2.8 µM (inactive),0.14 µM (active)
CC[C@@]1(O)C(=O)OCc2c1cc1n(c2=O)Cc2c-1nc1ccccc1c2/C=N\NC(=O)C1CCCN1 (some centres undefined),0.0275 µM (active),0.386 µM (active),0.282 µM (active),0.117 µM (active),0.133 µM (active),0.818 µM (active),< 0.0225 µM (active),0.0461 µM (active),14.7 µM (inactive),4.93 µM (inactive),0.0362 µM (active),,0.254 µM (active),0.364 µM (active),0.147 µM (active),6.58 µM (inactive),0.09 µM (active),2 µM (inactive),19.4 µM (inactive),< 0.0177 µM (active)
C/C(=N\NC(=S)N1CCCCC1)c1cccc(C)n1,0.0108 µM (active),0.056 µM (active),< 0.01 µM (active),< 0.01 µM (active),0.153 µM (active),< 0.01 µM (active),< 0.0103 µM (active),< 0.01 µM (active),< 0.01 µM (active),0.149 µM (active),< 0.01 µM (active),< 0.0106 µM (active),< 0.01 µM (active),0.238 µM (active),0.0141 µM (active),0.0968 µM (active),< 0.01 µM (active),0.0944 µM (active),,< 0.01 µM (active)
CCCCCCCCCCCCCCCCCCNc1ccn(C2OC(COP(=O)(O)OCC3OC(n4cc(F)c(NCCCCCCCCCCCCCCCCCC)nc4=O)CC3O)C(O)C2O)c(=O)n1 (centres undefined),> 100 µM (inactive),> 100 µM (inactive),38.9 µM (inactive),> 100 µM (inactive),> 100 µM (inactive),66.4 µM (inactive),> 100 µM (inactive),> 100 µM (inactive),78.9 µM (inactive),> 100 µM (inactive),67 µM (inactive),> 100 µM (inactive),> 100 µM (inactive),> 100 µM (inactive),> 100 µM (inactive),> 100 µM (inactive),> 100 µM (inactive),> 100 µM (inactive),> 100 µM (inactive),> 100 µM (inactive)
CN(C)C(=S)S [SODIUM DIMETHYLCARBAMODITHIOATE],80 µM (inactive),> 80.2 µM (inactive),0.194 µM (active),> 100 µM (inactive),> 95.7 µM (inactive),17.5 µM (inactive),> 100 µM (inactive),> 70 µM (inactive),43.6 µM (inactive),> 100 µM (inactive),98.6 µM (inactive),,63.1 µM (inactive),83.9 µM (inactive),> 100 µM (inactive),> 64.4 µM (inactive),34.4 µM (inactive),> 78 µM (inactive),> 100 µM (inactive),> 100 µM (inactive)
CCSC1=N/C(=C\c2ccc(N(C)C)cc2)C(Cl)=N1,> 100 µM (inactive),> 100 µM (inactive),> 100 µM (inactive),> 100 µM (inactive),> 100 µM (inactive),59.3 µM (inactive),> 100 µM (inactive),> 100 µM (inactive),> 100 µM (inactive),> 100 µM (inactive),> 100 µM (inactive),> 100 µM (inactive),> 100 µM (inactive),25.2 µM (inactive),> 100 µM (inactive),> 100 µM (inactive),,> 100 µM (inactive),> 100 µM (inactive),> 100 µM (inactive)
